Experimental data from US20040063681A1, “Methods for using gold (III) complexes as anti-tumor and anti-HIV agents” (priority 2002, published 2004).
“And” between values parts separate entries of the source, which are not always exact repeats. Identical values can stand only once.

Columns and labels:
[1] = system: Human Oral Epidermoid Carcinoma (KB-3-1); assay: MTT cytotoxicity, KB-3-1; type: cell-based; settings: for IC50: MTT, growth inhibition
Source text: (§1) Human promyelocytic leukemia (HL-60), human hepatocellular carcinoma (HepG2), Human cervix epitheloid carcinoma cells (HeLa) and human oral epidermoid carcinoma cells (KB-3-1), were obtained from American Type Culture Collection (ATCC) (Rockville, Md.). […] Cell culture flasks and 96 well microtitre plates were from Nalge Nunc hit. Culture medium, other medium constituents and phosphate buffered saline (PBS) were obtained from Gibco BRL (Rockville, Md.). Cell Proliferation Kit I (MTT) was purchased from Roche (Mannheim, Germany).

[2] = system: Human Promyelocytic Leukemia (HL-60); assay: MTT cytotoxicity, HL-60; type: cell-based; settings: growth inhibition
Source text: (§2) Human promyelocytic leukemia (HL-60), human hepatocellular carcinoma (HepG2), Human cervix epitheloid carcinoma cells (HeLa) and human oral epidermoid carcinoma cells (KB-3-1), were obtained from American Type Culture Collection (ATCC) (Rockville, Md.). The multi-drug-resistant variant KB-V1 cell line was obtained by stepwise selections for vinblastine resistance as described by Shen et al., J. Biol. Chem. 261:7762-7770 (1986)], and was generously provided by Dr Michael Gottesman (NIH, Bethesda, Md.). Human nasopharyngeal carcinoma cells (SUNE1 and its cisplatin resistance variant, CNE1) were derived from poorly differentiated NPC in Chinese patients as described by Gu et al., Chin. J. Cancer 2:270-272 (1983), and were generously provided by Dr S. W. Tsao (The University of Hong Kong, Hong Kong, PRC). Cell culture flasks and 96 well microtitre plates were from Nalge Nunc hit. Culture medium, other medium constituents and phosphate buffered saline (PBS) were obtained from Gibco BRL (Rockville, Md.). Cell Proliferation Kit I (MTT) was purchased from Roche (Mannheim, Germany).
(§3) The anti-cancer activities of the gold(III) porphyrin complexes were evaluated toward some established human cancer cell lines: promyelocytic leukemia (HL-60), hepatocellular carcinoma (HepG2), cervix epitheloid carcinoma (HeLa), epidermoid carcinoma (KB-3-1) and its multi-drug resistant variant (KB-V1), nasopharyngeal carcinoma (SUNE1) and its cisplatin-resistant variant (CNE1). The experiments were carried out by following the MTT procedure (see Mosmann et al., J. Immunol. Methods 65:55-63 (1983). The IC50 values of the gold(III) porphyrin complexes together with that of cisplatin, and KAuCl4 are provided in Table 4a; and the IC50 values of the gold(III) Schiff-base and bis(pyridyl)carboxamide complexes are shown in Table 4b. The cytotoxicity profiles of some selected gold(III) porphyrin complexes toward SUNE1 and its cisplatin-resistant variant CNE1 are also shown in FIG. 7.

[3] = system: Human Hepatocellular Carcinoma (HepG2); assay: MTT cytotoxicity, HepG2; type: cell-based; settings: growth inhibition
Source text: as §2, §3

[4] = system: Human Nasopharyngeal Carcinoma (SUNE1); assay: MTT cytotoxicity, SUNE1; type: cell-based; settings: for IC50: MTT, growth inhibition
Source text: as §1

[5] = system: Human Cervix Epitheloid Carcinoma (HeLa); assay: MTT cytotoxicity, HeLa; type: cell-based; settings: for IC50: MTT, growth inhibition
Source text: as §1

[6] = system: Human Oral Epidermoid Carcinoma (multi-drug resistance, KB-V-1); assay: MTT cytotoxicity, KB-V-1; type: cell-based; settings: for IC50: MTT, growth inhibition, multi-drug resistant
Source text: as §2
The anti-cancer activities of the gold(III) porphyrin complexes were evaluated toward some established human cancer cell lines: promyelocytic leukemia (HL-60), hepatocellular carcinoma (HepG2), cervix epitheloid carcinoma (HeLa), epidermoid carcinoma (KB-3-1) and its multi-drug resistant variant (KB-V1), nasopharyngeal carcinoma (SUNE1) and its cisplatin-resistant variant (CNE1).

[7] = system: Human Nasopharyngeal Carcinoma (cisplatin resistance, CNE1); assay: MTT cytotoxicity, CNE1; type: cell-based; settings: for IC50: MTT, growth inhibition, cisplatin resistant
Source text: as §1

[8] = target: T1, HIV-1 reverse transcriptase (Human immunodeficiency virus type 1 group M subtype B, UniProt P04585); assay: HIV-1 reverse transcriptase activity, ELISA method; type: biochemical; settings: for HIV-1 RT inhibition: drug concentration fixed at 6 μM; for HIV-1 RT inhibition activity compared with the corresponding metal complex (1j, 1k): free-base porphyrins
T1 construct: treatment of HIV-1 RT in Lysis buffer (2 ng, 128.7 μL) with Complex 1j
Procedure: HIV-1 reverse transcriptase activities were measured by an ELISA method (see Eberle et al, J. Virol. Methods, 40:347-356 (1992) performed by incubating the enzyme with digoxigenin-labeled deoxyuridin-5′-triphosphate (dUTP) and the biotin-labeled analogue during reverse transcription starting from the template/primer hybrid poly(A)•oligo(dT)15. After reverse transcription, the newly synthesized DNA was immobilized onto streptavidin-coated ELISA wells, and the incorporation of the dioxigenin-labeled dUTP was assayed by chemiluminescence method. For example, treatment of HIV-1 RT in Lysis buffer (2 ng, 128.7 μL) with Complex 1j (1.3 μL of […] stock solution) dissolved in TBS at 37° C. produced significant RT activity inhibition (˜95%) after 30 min incubation.

[9] = Electrochemical measurements (cyclic voltammetry); type: physicochemical; settings: for Couple I (first reduction couple) / Couple II (second reduction couple): cyclic voltammetry, 0.1 M nBu4NPF6, glassy carbon, vs Cp2Fe^+/0; for ΔE1o (E^0Y − E^0H), couple I / ΔE2^0 (E^0Y − E^0H), couple II: relative to Y=H (Complex 1a)
Procedure: Electrochemical measurements. Electrochemical measurements were performed at room temperature after purging with nitrogen using 0.1 M tetrabutylammonium hexafluorophosphate (TBAP)/acetonitrile as supporting electrolyte. The working electrode was a glassy carbon (Atomergic Chemetal V25, geometric area of 0.35 cm^2) electrode and the counter electrode was platinum gauze. A nonaqueous Ag/AgNO3 (0.1 M in acetonitrile) reference electrode was contained in a separate compartment connected to the test solution via fine sintered glass disks. The ferrocenium/ferrocene couple was used as the internal standard. The redox properties of the gold(III) porphyrin complexes in non-aqueous medium (CH2Cl2 with 0.1 M nBu4NPF6) have been studied by cyclic voltammetry with glassy carbon and platinum as the working and counter electrodes, respectively. […] The effect of para-substitution on the electrochemical potentials has been examined by Hammett correlation analysis.

calf thymus DNA = assay: UV-vis absorption titration with calf thymus DNA; type: binding; settings: for hypochromicity / intrinsic binding constant (Kb): Tris buffer
Procedure: The calf thymus DNA was purchased from Sigma-Aldrich Chemical Co. and was purified by phenol-chloroform extraction. The DNA was dissolved in buffer (5 mM Tris, 5 mM NaCl, pH 7.2). The concentration (per base pair) of calf thymus DNA was determined spectrophotometrically on the basic of ε260, 13,200 M^−1cm^−1bp.
Absorption Titration. The binding interaction of the gold(III) porphyrins to duplex DNA has been studied by UV-vis spectroscopy.
where [ctDNA] is the concentration of DNA, Δεap═|εA−εB| in which εA=Aobs/[complex], and Δε=|εB−εF|. εB and εF correspond to the extinction coefficient of DNA-bound gold(III) porphyrin and the free gold(III) porphyrins, respectively.
The effect of temperature on the intrinsic binding constants was investigated. Using the van't Hoff equation (2): […]

SMILES | IC50 [1] [nM] | IC50 [2] [nM] | IC50 [3] [nM] | IC50 ratio [cisplatin/gold (III) porphyrin complexes] SUNE1 [4] | IC50 [4] [nM] | IC50 ratio [cisplatin/gold (III) porphyrin complexes] HeLa [5] | IC50 [5] [nM] | IC50 [6] [nM] | IC50 ratio [cisplatin/gold (III) porphyrin complexes] CNE1 [7] | IC50 [7] [nM] | also measured
COc1cc(-c2c3nc(c(-c4cc(OC)c(OC)c(OC)c4)c4ccc([n-]4)c(-c4cc(OC)c(OC)c(OC)c4)c4nc(c(-c5cc(OC)c(OC)c(OC)c5)c5ccc2[n-]5)C=C4)C=C3)cc(OC)c1OC.[Au+3].[Cl-] [Complex 1f] | 870 | 740 | 1830 | 18.5 | 680 | 16.5 | 680 | 710 | 55.9 | 730 | IC50 ratio [cisplatin/gold (III) porphyrin complexes] KB-3-1 [1]: 15.1; IC50 ratio [cisplatin/gold (III) porphyrin complexes] KB-V1 [6]: 5.62
[Au+].[Cl-].c1ccc(P(c2ccccc2)c2ccccc2)cc1 [[(Ph3P)Au^ICl]] |  |  |  |  |  |  |  |  |  |  | HIV-1 RT inhibition [8]: 43%
CCCC[N+](CCCC)(CCCC)CCCC.[Au+3].[Cl-].[Cl-].[Cl-].[Cl-] [nBu4N[AuCl4], Tetrabutylammonium tetrachloroaurate, reference compound] | 10300 | 9710 | 11200 |  | 9940 |  | 8410 |  |  | 11500 | 
O=S(=O)(O)c1ccc(-c2c3nc(c(-c4ccc(S(=O)(=O)O)cc4)c4ccc([nH]4)c(-c4ccc(S(=O)(=O)O)cc4)c4nc(c(-c5ccc(S(=O)(=O)O)cc5)c5ccc2[nH]5)C=C4)C=C3)cc1 [[H2TPPS]^4−, meso-tetrakis(4-sulfonatophenyl)porphyrin] |  |  |  |  |  |  |  |  |  |  | HIV-1 RT inhibition activity compared with the corresponding metal complex (1j, 1k) [8]: substantially lower HIV-1 RT inhibition activities
C[n+]1ccc(-c2c3nc(c(-c4cc[n+](C)cc4)c4ccc([nH]4)c(-c4cc[n+](C)cc4)c4nc(c(-c5cc[n+](C)cc5)c5ccc2[nH]5)C=C4)C=C3)cc1.[Cl-].[Cl-].[Cl-].[Cl-].[Zn] [[Zn^II(TMPyP)]Cl4] |  |  |  |  |  |  |  |  |  |  | HIV-1 RT inhibition [8]: 32%
C[n+]1ccc(-c2c3nc(c(-c4cc[n+](C)cc4)c4ccc([nH]4)c(-c4cc[n+](C)cc4)c4nc(c(-c5cc[n+](C)cc5)c5ccc2[nH]5)C=C4)C=C3)cc1 [[H2TMPyP]^4+, Meso-tetrakis(N-methylpyridinium-4-yl)porphyrin] |  |  |  |  |  |  |  |  |  |  | HIV-1 RT inhibition activity compared with the corresponding metal complex (1j, 1k) [8]: substantially lower HIV-1 RT inhibition activities
Brc1ccc(-c2c3nc(c(-c4ccc(Br)cc4)c4ccc([n-]4)c(-c4ccc(Br)cc4)c4nc(c(-c5ccc(Br)cc5)c5ccc2[n-]5)C=C4)C=C3)cc1.[Au+3].[Cl-] [Complex 1d] | 1290 | 1120 | 1210 | 17.0 | 740 | 12.6 | 890 | 640 | 41.6 | 980 | Couple I (first reduction couple) [9]: −0.97 V; Couple II (second reduction couple) [9]: −1.45 V; ΔE1o (E^0Y − E^0H), couple I [9]: +0.03 V; ΔE2^0 (E^0Y − E^0H), couple II [9]: +0.03 V; IC50 ratio [cisplatin/gold (III) porphyrin complexes] KB-3-1 [1]: 10.23; IC50 ratio [cisplatin/gold (III) porphyrin complexes] KB-V1 [6]: 8.96
Cc1cn(C2CC(N=[N+]=[N-])C(CO)O2)c(=O)[nH]c1=O (stereo not drawn) [AZT, 3′-azido-2′,3′-dideoxythymidine] |  |  |  |  |  |  |  |  |  |  | inhibition at 0.008 µM ([8]; AZT 8 nM alone, read-out: HIV-1 RT enzyme inhibition, alone): 17 to 39%; IC50 ([8]; ELISA, mean ± SE of at least three determinations, read-out: IC50 HIV-1 RT): 69 ± 8 nM
N.N.[Cl][Pt][Cl] [Pt(NH3)2Cl2, reference compound] | 13200 | 16800 | 13500 |  | 12600 |  | 11200 | 10200 |  | 40800 | 
COc1ccc(-c2c3nc(c(-c4ccc(OC)cc4)c4ccc([n-]4)c(-c4ccc(OC)cc4)c4nc(c(-c5ccc(OC)cc5)c5ccc2[n-]5)C=C4)C=C3)cc1.[Au+3].[Cl-] [Complex 1c] |  | 880 | 760 | 18.5 | 680 | 17.0 | 660 |  | 53.0 | 770 | Couple I (first reduction couple) [9]: −1.02 V; Couple II (second reduction couple) [9]: −1.51 V; ΔE1o (E^0Y − E^0H), couple I [9]: −0.02 V; ΔE2^0 (E^0Y − E^0H), couple II [9]: −0.02 V
Clc1ccc(-c2c3nc(c(-c4ccc(Cl)cc4)c4ccc([n-]4)c(-c4ccc(Cl)cc4)c4nc(c(-c5ccc(Cl)cc5)c5ccc2[n-]5)C=C4)C=C3)cc1.[Au+3].[Cl-] [Complex 1e] | 500 | 870 | 920 | 37.1 | 340 | 16.2 | 690 | 230 | 99.5 | 410 | Couple I (first reduction couple) [9]: −0.96 V; Couple II (second reduction couple) [9]: −1.44 V; ΔE1o (E^0Y − E^0H), couple I [9]: +0.44 V; ΔE2^0 (E^0Y − E^0H), couple II [9]: +0.44 V; IC50 ratio [cisplatin/gold (III) porphyrin complexes] KB-3-1 [1]: 26.4; IC50 ratio [cisplatin/gold (III) porphyrin complexes] KB-V1 [6]: 20.4
CCc1c(CC)c2[n]3c1C=c1c(CC)c(CC)c4[n]1[Au]31[n]3c(c(CC)c(CC)c3C=c3c(CC)c(CC)c([n]31)=C2)C=4 [Complex 1h] |  |  |  |  |  |  |  |  |  |  | hypochromicity (calf thymus DNA; 291.4 K): 30.1%; intrinsic binding constant (Kb) (calf thymus DNA; 291.4 K): 4.14 × 10^6 dm^3mol^−1; hypochromicity (calf thymus DNA; 296.8 K): 29.2%; intrinsic binding constant (Kb) (calf thymus DNA; 296.8 K): 2.73 × 10^6 dm^3mol^−1; hypochromicity (calf thymus DNA; 302.2 K): 28.0%; intrinsic binding constant (Kb) (calf thymus DNA; 302.2 K): 1.51 × 10^6 dm^3mol^−1; hypochromicity (calf thymus DNA; 305.5 K): 26.1%; intrinsic binding constant (Kb) (calf thymus DNA; 305.5 K): 1.27 × 10^6 dm^3mol^−1; hypochromicity (calf thymus DNA; 311.2 K): 24.4%; intrinsic binding constant (Kb) (calf thymus DNA; 311.2 K): 0.96 × 10^6 dm^3mol^−1; ΔS° (calf thymus DNA; binding to calf thymus DNA, van't Hoff analysis): −17.3 calmol^−1K^−1 and −17.3 ± 0.7 calmol^−1K^−1; ΔG° (298 K) (calf thymus DNA; binding to calf thymus DNA, van't Hoff analysis, 298 K): −8.2 ± 0.7
